We go through 62 compounds from patent US8309552B2, “Immunomodulating heterocyclic compounds” (Medigene AG, priority 2003, dated 2012).

In general, EC50 refers to the concentration at which the effect is half-maximal.

The target in the test is T1, CD80-CD28 interaction (Homo sapiens, UniProt P33681).
T1 sequence (P33681 35-242 limits assumed): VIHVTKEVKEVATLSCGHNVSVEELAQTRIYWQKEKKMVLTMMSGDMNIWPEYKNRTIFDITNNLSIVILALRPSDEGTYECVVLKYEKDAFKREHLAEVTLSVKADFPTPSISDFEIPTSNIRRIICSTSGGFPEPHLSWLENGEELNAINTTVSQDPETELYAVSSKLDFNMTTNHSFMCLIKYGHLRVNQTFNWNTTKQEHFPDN
In words: Homogenous Time Resolved Fluorescence (HTRF) assay, cell free. The note with it: cell-free HTRF, compound concentration series 100 μM-1.7 nM, 4 hours at room temperature; read-out: Activity (EC50 in the HTRF assay). In kind it is binding. Here is the method:
Homogenous Time Resolved Fluorescence Assay
The examples described above were tested in a cell free Homogenous Time Resolved Fluorescence (HTRF) assay to determine their activity as inhibitors of the CD80-CD28 interaction.
In the assay, europium and allophycocyanin (APC) are associated with CD28 and CD80 indirectly (through antibody linkers) to form a complex, which brings the europium and APC into close proximity to generate a signal. The complex comprises the following six proteins: fluorescent label 1, linker antibody 1, CD28 fusion protein, CD80 fusion protein, linker antibody 2, and fluorescent label 2. The table below describes these reagents in greater detail.
On formation of the complex, europium and APC are brought into proximity and a signal is generated.
Non-specific interaction was measured by substituting a mouse Fab fragment (C215) for the CD80 mouse Fab fragment fusion protein (1.9 μg/ml). The assay was carried out in black 384 well plates in a final volume of 30 μl. Assay buffer: 50 mM Tris-HCl, 150 mM NaCl pH7.8, containing 0.1% BSA (w/v) added just prior to use.
Compounds were added to the above reagents in a concentration series ranging between 100 μM-1.7 nM. The reaction was incubated for 4 hours at room temperature. Dual measurements were made using a Wallac Victor 1420 Multilabel Counter. First measurement: excitation 340 nm, emission 665 nm, delay 50 μs, window time 200 μs. second measurement: excitation 340 nm, emission 615 nm, delay 50 μs, window time 200 μs. Counts were automatically corrected for fluorescence crossover, quenching and background. The EC50 activities of compounds tested are recorded as: EC50:*=>10 μM,**=1-10 μM,***=<1 μM.
For orientation: Time-resolved FRET reads energy transfer from a long-lived donor to a nearby acceptor.
Regarding `CCCCOCCCNC(=O)c1ccc(-n2[nH]c3c(nnc4ccccc43)c2=O)cc1` [Example 67], the concentration for a half-maximal effect (EC50) was < 1 µM.
Then `CCN1CCCC1CNC(=O)c1ccc(-n2[nH]c3c(nnc4ccccc43)c2=O)cc1` (centres unmarked) [Example 69], with < 1 µM; and `CC[C@@H](C)NC(=O)c1ccc(-n2[nH]c3c(nnc4ccccc43)c2=O)cc1` [Example 70], with < 1 µM.
With `CC[C@H](C)NC(=O)c1ccc(-n2[nH]c3c(nnc4ccccc43)c2=O)cc1` [Example 71], the EC50 is < 1 µM.
The same measure for `CCC(CC)NC(=O)c1ccc(-n2[nH]c3c(nnc4ccccc43)c2=O)cc1` [Example 72]: 1 to 10 µM; for `O=C(NCCCCc1ccccc1)c1ccc(-n2[nH]c3c(nnc4ccccc43)c2=O)cc1` [Example 73]: 1 to 10 µM; for `CCOC(=O)CCC(NC(=O)c1ccc(-n2[nH]c3c(nnc4ccccc43)c2=O)cc1)C(=O)OCC` (centres unmarked) [Example 74]: 1 to 10 µM.
With `CC(NC(=O)c1ccc(-n2[nH]c3c(nnc4ccccc43)c2=O)cc1)C1CCCCC1` (centres unmarked) [Example 75], the 50% effective concentration (EC50) was 1 to 10 µM.
Consider `O=C(NCCc1ccccn1)c1ccc(-n2[nH]c3c(nnc4ccccc43)c2=O)cc1` [Example 76], for which the EC50 lay in the range of 1 to 10 µM.
The same measure for `CCSCCNC(=O)c1ccc(-n2[nH]c3c(nnc4ccccc43)c2=O)cc1` [Example 77]: < 1 µM.
The same measure for `O=C(NC1CC1)c1ccc(-n2[nH]c3c(nnc4ccccc43)c2=O)cc1` [Example 78]: 1 to 10 µM; for `O=C(NCCCN1CCCC1)c1ccc(-n2[nH]c3c(nnc4ccccc43)c2=O)cc1` [Example 79]: < 1 µM.
For `O=C(NC1CCCN(Cc2ccccc2)C1)c1ccc(-n2[nH]c3c(nnc4ccccc43)c2=O)cc1` (centres unmarked) [Example 80], the EC50 was < 1 µM.
Regarding `CCN(CC)CCCC(C)NC(=O)c1ccc(-n2[nH]c3c(nnc4ccccc43)c2=O)cc1` (centres unmarked) [Example 81], the EC50 is < 1 µM.
Turning to `CC(C)CCNC(=O)c1ccc(-n2[nH]c3c(nnc4ccccc43)c2=O)cc1` [Example 82], the EC50 lay within 1 to 10 µM.
For the compound `O=C(NC1CCCC1)c1ccc(-n2[nH]c3c(nnc4ccccc43)c2=O)cc1` [Example 83], the EC50 lay within 1 to 10 µM.
For the compound `CCCNC(=O)c1ccc(-n2[nH]c3c(nnc4ccccc43)c2=O)cc1` [Example 84], the EC50 was in the range of 1 to 10 µM.
Regarding `CC(C)(C)CCNC(=O)c1ccc(-n2[nH]c3c(nnc4ccccc43)c2=O)cc1` [Example 85], the EC50 was in the range of 1 to 10 µM.
`O=C(NC1CCN(Cc2ccccc2)CC1)c1ccc(-n2[nH]c3c(nnc4ccccc43)c2=O)cc1` [Example 86]: the EC50 is < 1 µM.
Take `O=C(NCC1CCCCCC1)c1ccc(-n2[nH]c3c(nnc4ccccc43)c2=O)cc1` [Example 87]: the concentration for a half-maximal effect (EC50) is > 10 µM.
Turning to `CC(NC(=O)c1ccc(-n2[nH]c3c(nnc4ccccc43)c2=O)cc1)C(C)(C)C` (centres unmarked) [Example 88], the EC50 lay within 1 to 10 µM.
Then `CC(C)C(C)NC(=O)c1ccc(-n2[nH]c3c(nnc4ccccc43)c2=O)cc1` (centres unmarked) [Example 89], with < 1 µM; and `O=C(NC1CCCC1OCc1ccccc1)c1ccc(-n2[nH]c3c(nnc4ccccc43)c2=O)cc1` (centres unmarked) [Example 90], with 1 to 10 µM.
The same measure for `CC(C)(C)OC(=O)NCCCCNC(=O)c1ccc(-n2[nH]c3c(nnc4ccccc43)c2=O)cc1` [Example 91]: < 1 µM.
The same measure for `CCCCCCCC(C)NC(=O)c1ccc(-n2[nH]c3c(nnc4ccccc43)c2=O)cc1` (centres unmarked) [Example 92]: > 10 µM; for `COC(=O)C(NC(=O)c1ccc(-n2[nH]c3c(nnc4ccccc43)c2=O)cc1)C(C)C` (centres unmarked) [Example 93]: 1 to 10 µM; for `O=C(NC1CCN(Cc2ccccc2)C1)c1ccc(-n2[nH]c3c(nnc4ccccc43)c2=O)cc1` (centres unmarked) [Example 94]: < 1 µM.
`O=C(NCCc1cccnc1)c1ccc(-n2[nH]c3c(nnc4ccccc43)c2=O)cc1` [Example 95]: the half-maximal effective concentration (EC50) is < 1 µM.
Turning to `CC(C)CCC(C)NC(=O)c1ccc(-n2[nH]c3c(nnc4ccccc43)c2=O)cc1` (centres unmarked) [Example 96], the EC50 was in the range of 1 to 10 µM.
With `CN(CCNC(=O)c1ccc(-n2[nH]c3c(nnc4ccccc43)c2=O)cc1)C(=O)OC(C)(C)C` [Example 97], the concentration giving a half-maximal response (EC50) fell in the range of 1 to 10 µM.
Then `O=C(Nc1ccc(N2CCCCC2)cc1)c1ccc(-n2[nH]c3c(nnc4ccccc43)c2=O)cc1` [Example 98], with 1 to 10 µM; and `CC(CCCC(C)(C)O)NC(=O)c1ccc(-n2[nH]c3c(nnc4ccccc43)c2=O)cc1` (centres unmarked) [Example 99], with 1 to 10 µM; and `CC(C)(C)OC(=O)N1CCN(CCNC(=O)c2ccc(-n3[nH]c4c(nnc5ccccc54)c3=O)cc2)CC1` [Example 101], with < 1 µM.
The same measure for `O=C(NCCN1CCNCC1)c1ccc(-n2[nH]c3c(nnc4ccccc43)c2=O)cc1` [Example 102]: 1 to 10 µM.
For the compound `CC1(C)CC(NC(=O)c2ccc(-n3[nH]c4c(nnc5ccccc54)c3=O)cc2)CC(C)(C)N1` [Example 103], the EC50 was < 1 µM.
Then `CCOC(=O)N1CCC(NC(=O)c2ccc(-n3[nH]c4c(nnc5ccccc54)c3=O)cc2)CC1` [Example 104], with 1 to 10 µM; and `CC(CCc1ccccc1)NC(=O)c1ccc(-n2[nH]c3c(nnc4ccccc43)c2=O)cc1` (centres unmarked) [Example 105], with > 10 µM.
Then `COC(CNC(=O)c1ccc(-n2[nH]c3c(nnc4ccccc43)c2=O)cc1)OC` [Example 106], with 1 to 10 µM; and `CCC(C)CNC(=O)c1ccc(-n2[nH]c3c(nnc4ccccc43)c2=O)cc1` (centres unmarked) [Example 107], with 1 to 10 µM; and `CC(C)NCCNC(=O)c1ccc(-n2[nH]c3c(nnc4ccccc43)c2=O)cc1` [Example 108], with < 1 µM.
The same measure for `O=C(NCCNCCO)c1ccc(-n2[nH]c3c(nnc4ccccc43)c2=O)cc1` [Example 109]: < 1 µM.
Take `CC(C)NCCCNC(=O)c1ccc(-n2[nH]c3c(nnc4ccccc43)c2=O)cc1` [Example 110]: the 50% effective concentration (EC50) is < 1 µM.
Then `O=C(NCCCO)c1ccc(-n2[nH]c3c(nnc4ccccc43)c2=O)cc1` [Example 111], with 1 to 10 µM; and `O=C(NCCCCCO)c1ccc(-n2[nH]c3c(nnc4ccccc43)c2=O)cc1` [Example 112], with < 1 µM.
Take `CCCCCCNC(=O)c1ccc(-n2[nH]c3c(nnc4ccccc43)c2=O)cc1` [Example 113]: the EC50 was 1 to 10 µM.
The same measure for `NS(=O)(=O)c1ccc(CCNC(=O)c2ccc(-n3[nH]c4c(nnc5ccccc54)c3=O)cc2)cc1` [Example 114]: 1 to 10 µM; for `COC(=O)CNC(=O)c1ccc(-n2[nH]c3c(nnc4ccccc43)c2=O)cc1` [Example 115]: 1 to 10 µM.
Then `CCOC(=O)CCNC(=O)c1ccc(-n2[nH]c3c(nnc4ccccc43)c2=O)cc1` [Example 116], with > 10 µM; and `CC(C)(C)OC(=O)NCCCCCCNC(=O)c1ccc(-n2[nH]c3c(nnc4ccccc43)c2=O)cc1` [Example 117], with 1 to 10 µM; and `CCOC(=O)C(C)NC(=O)c1ccc(-n2[nH]c3c(nnc4ccccc43)c2=O)cc1` (centres unmarked) [Example 118], with 1 to 10 µM.
Consider `COCC(C)NC(=O)c1ccc(-n2[nH]c3c(nnc4ccccc43)c2=O)cc1` (centres unmarked) [Example 119], for which the 50% effective concentration (EC50) fell in the range of 1 to 10 µM.
As to `CC(NC(=O)c1ccc(-n2[nH]c3c(nnc4ccccc43)c2=O)cc1)C1CCCCC1` (centres unmarked) [Example 120], the 50% effective concentration (EC50) is 1 to 10 µM.
As to `CC1C(NC(=O)c2ccc(-n3[nH]c4c(nnc5ccccc54)c3=O)cc2)CC2CC1C2(C)C` (centres unmarked) [Example 121], the half-maximal effective concentration (EC50) was 1 to 10 µM.
Consider `CC1C(NC(=O)c2ccc(-n3[nH]c4c(nnc5ccccc54)c3=O)cc2)CC2CC1C2(C)C` (centres unmarked) [Example 122], for which the EC50 was > 10 µM.
In the case of `O=C(Nc1ccc(-n2[nH]c3c(nnc4ccccc43)c2=O)cc1)NC1CCN(Cc2ccccc2)CC1` [Example 123], the EC50 was 1 to 10 µM.
For the compound `CC(C)CC(C)NC(=O)Nc1ccc(-n2[nH]c3c(nnc4ccccc43)c2=O)cc1` (centres unmarked) [Example 124], the 50% effective concentration (EC50) is > 10 µM.
Then `O=C(NCCN1CCCCC1)Nc1ccc(-n2[nH]c3c(nnc4ccccc43)c2=O)cc1` [Example 125], with 1 to 10 µM; and `O=C(NCc1ccc(F)cc1)Nc1ccc(-n2[nH]c3c(nnc4ccccc43)c2=O)cc1` [Example 126], with > 10 µM; and `O=C(Nc1ccc(-n2[nH]c3c(nnc4ccccc43)c2=O)cc1)NC1CCCCC1` [Example 127], with > 10 µM.
On to `CCOCCCNC(=O)Nc1ccc(-n2[nH]c3c(nnc4ccccc43)c2=O)cc1` [Example 128], for which the EC50 was 1 to 10 µM.
The same measure for `CN1CCN(CCCNC(=O)Nc2ccc(-n3[nH]c4c(nnc5ccccc54)c3=O)cc2)CC1` [Example 129]: < 1 µM.
Consider `CN(C)CCNC(=O)Nc1ccc(-n2[nH]c3c(nnc4ccccc43)c2=O)cc1` [Example 130], for which the EC50 is < 1 µM.
